Assay results from article PMC11774580 (Chemosphere, 2024).
Values joined by “and” are separate entries in the source; they are usually repeats but may differ in a detail not shown here. Equal values may be shown once.

How the values were obtained:
human OAT3 = biological target: T1, human OAT3 (Homo sapiens, UniProt Q8TCC7); assay: hOAT3 substrate; details: for hOAT3 uptake ratio, % higher than mock transfectants / hOAT3 uptake ratio, fold higher than mock transfected controls: 1 μM PFAS screen; for Transporter Uptake Ratio OAT3: 1 μM PFAS, threshold ≥ 2-fold; for hOAT3-mediated uptake, fold: follow-up test, without probenecid; for Effect of probenecid cotreatment on hOAT3-mediated uptake: probenecid 1 mM
T1 sequence (Q8TCC7 1-542): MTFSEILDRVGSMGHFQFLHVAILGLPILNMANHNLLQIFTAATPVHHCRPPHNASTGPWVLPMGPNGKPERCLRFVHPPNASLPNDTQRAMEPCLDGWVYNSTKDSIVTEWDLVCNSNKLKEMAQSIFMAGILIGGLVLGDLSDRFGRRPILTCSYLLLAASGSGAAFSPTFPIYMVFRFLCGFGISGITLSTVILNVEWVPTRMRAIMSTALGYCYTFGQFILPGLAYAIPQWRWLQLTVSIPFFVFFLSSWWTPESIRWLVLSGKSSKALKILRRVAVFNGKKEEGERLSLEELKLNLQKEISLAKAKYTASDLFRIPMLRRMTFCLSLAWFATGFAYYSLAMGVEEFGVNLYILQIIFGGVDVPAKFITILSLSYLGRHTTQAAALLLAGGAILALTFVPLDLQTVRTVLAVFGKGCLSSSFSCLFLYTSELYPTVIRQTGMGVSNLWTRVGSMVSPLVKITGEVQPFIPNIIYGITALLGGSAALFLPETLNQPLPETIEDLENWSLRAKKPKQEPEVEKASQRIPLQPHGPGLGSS

human OAT4 = biological target: T2, human OAT4 (Homo sapiens, UniProt Q9NSA0); assay: hOAT4 substrate; type: in vitro ADME; details: for Transporter Uptake Ratio OAT4: 1 μM PFAS, threshold ≥ 2-fold; for Effect of probenecid co-treatment on hOAT4-mediated uptake: probenecid 1 mM
T2 sequence (Q9NSA0 1-550): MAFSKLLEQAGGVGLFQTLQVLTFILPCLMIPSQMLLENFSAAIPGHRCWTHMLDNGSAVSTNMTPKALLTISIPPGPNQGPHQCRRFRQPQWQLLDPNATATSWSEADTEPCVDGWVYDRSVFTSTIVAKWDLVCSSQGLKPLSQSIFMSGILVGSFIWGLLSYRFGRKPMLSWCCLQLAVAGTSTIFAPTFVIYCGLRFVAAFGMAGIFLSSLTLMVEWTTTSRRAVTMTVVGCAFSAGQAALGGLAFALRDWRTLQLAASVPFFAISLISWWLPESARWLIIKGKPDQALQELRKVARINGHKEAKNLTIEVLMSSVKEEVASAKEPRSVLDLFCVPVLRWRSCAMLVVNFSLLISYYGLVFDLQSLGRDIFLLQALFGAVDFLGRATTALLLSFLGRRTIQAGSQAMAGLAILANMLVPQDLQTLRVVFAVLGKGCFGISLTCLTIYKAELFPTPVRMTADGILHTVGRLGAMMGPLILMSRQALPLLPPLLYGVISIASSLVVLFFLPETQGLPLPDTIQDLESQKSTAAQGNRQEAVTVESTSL

[1] = system: MDCKII-LE cell monolayers; assay: Apparent permeability; details: donor pH 7.4, receiver pH 7.4; 2 μM PFAS; 90 min; 0.4% BSA in receiver
human OAT1 = biological target: T3, human OAT1 (Homo sapiens, UniProt Q4U2R8); assay: hOAT1 substrate
T3 sequence (Q4U2R8 1-563): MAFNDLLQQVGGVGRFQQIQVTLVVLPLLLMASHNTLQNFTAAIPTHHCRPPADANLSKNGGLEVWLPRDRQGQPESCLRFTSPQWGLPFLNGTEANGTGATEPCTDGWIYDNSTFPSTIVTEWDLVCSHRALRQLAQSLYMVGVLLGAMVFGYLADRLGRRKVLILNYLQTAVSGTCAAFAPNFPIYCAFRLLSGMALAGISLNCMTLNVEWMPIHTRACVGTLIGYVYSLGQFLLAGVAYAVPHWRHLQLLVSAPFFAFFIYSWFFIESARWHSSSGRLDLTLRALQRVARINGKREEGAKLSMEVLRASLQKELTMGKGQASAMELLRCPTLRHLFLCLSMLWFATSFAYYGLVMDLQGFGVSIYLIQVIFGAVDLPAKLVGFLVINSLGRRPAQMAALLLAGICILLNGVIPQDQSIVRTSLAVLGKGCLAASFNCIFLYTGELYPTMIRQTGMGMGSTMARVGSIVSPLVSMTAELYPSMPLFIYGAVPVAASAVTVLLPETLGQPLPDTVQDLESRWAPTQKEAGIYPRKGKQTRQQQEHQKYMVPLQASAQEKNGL

Structure (SMILES) | hOAT3 uptake ratio, % higher than mock transfectants (human OAT3) | OAT4 substrate classification (human OAT4) | hOAT4 uptake ratio, % above controls (human OAT4; 1 μM PFAS screen) | Ph 7.4 A-B Papp [1] | hOAT3 uptake ratio, fold higher than mock transfected controls (human OAT3) | Transporter Uptake Ratio OAT3 (human OAT3) | hOAT3-mediated uptake, fold (human OAT3) | Effect of probenecid cotreatment on hOAT3-mediated uptake (human OAT3) | hOAT4 uptake ratio, fold (human OAT4; 1 μM PFAS screen) | Transporter Uptake Ratio OAT4 (human OAT4) | Effect of probenecid co-treatment on hOAT4-mediated uptake (human OAT4) | hOAT1 uptake ratio, % higher than controls (human OAT1; 1 μM PFAS screen) | hOAT1 uptake ratio, fold higher than the control (human OAT1; 1 μM PFAS screen) | Transporter Uptake Ratio OAT1 (human OAT1; 1 μM PFAS, threshold ≥ 2-fold) | hOAT-mediated uptake (Fig. 3A, OAT1), fold (human OAT1; follow-up test, without probenecid) | Effect of probenecid co-treatment on hOAT1-mediated uptake (human OAT1; probenecid 1 mM) | hOAT3 substrate classification (human OAT3)
O=S(=O)(O)C(F)(F)C(F)(F)C(F)(F)C(F)(F)C(F)(F)C(F)(F)C(F)(F)C(F)(F)F [PFOS, perfluorooctane sulfonic acid] | 30–50% | relatively weak substrate | ~ 20% | 14 ×10⁻⁶ cm/s and 14.04 ×10⁻⁶ cm/s | – | – | – | – | – | – | – | – | – | – | – | – | –
O=S(=O)(O)C(F)(F)C(F)(F)C(F)(F)C(F)(F)F [PFBS, Perfluorobutane sulfonic acid] | – | strong substrates | – | 1.38 ×10⁻⁶ cm/s | 2.5–12 fold | + (denoted with a “+” to denote a threshold of ≥ 2-fold has been met and considered a substrate for the transporter) | 2.5–15 fold | markedly inhibited | greater than 2 fold | + (denoted with a “+” to denote a threshold of ≥ 2-fold has been met and considered a substrate for the transporter) | effectively inhibited | 5–60% | – | – | – | – | –
O=C(O)C(F)(F)C(F)(F)C(F)(F)C(F)(F)C(F)(F)C(F)(F)C(F)(F)C(F)(F)C(F)(F)C(F)(F)F [PFUDA, perfluoroundecanoic acid] | – | – | – | 11.56 ×10⁻⁶ cm/s | – | – | – | – | – | – | – | – | – | – | – | – | –
O=C(O)C(F)(F)C(F)(F)C(F)(F)C(F)(F)C(F)(F)F [PFHxA, perfluorohexanoic acid] | – | strong substrates | ~ 20% | 1.16 ×10⁻⁶ cm/s | 2.5–12 fold | + (denoted with a “+” to denote a threshold of ≥ 2-fold has been met and considered a substrate for the transporter) | 2.5–15 fold | markedly inhibited | – | + (denoted with a “+” to denote a threshold of ≥ 2-fold has been met and considered a substrate for the transporter) | effectively inhibited | – | ~ 2 fold | + (denoted with a “+” to denote a threshold of ≥ 2-fold has been met and considered a substrate for the transporter) | ~ 2 fold | markedly reduced | –
O=C(O)C(F)(F)C(F)(F)C(F)(F)C(F)(F)F [PFPA, perfluoropentanoic acid] | – | – | – | 0.99 ×10⁻⁶ cm/s | 2.5–12 fold | + (denoted with a “+” to denote a threshold of ≥ 2-fold has been met and considered a substrate for the transporter) | 2.5–15 fold | markedly inhibited | – | – | effectively inhibited | – | – | – | – | – | –
O=C(O)C(F)(F)C(F)(F)C(F)(F)C(F)(F)C(F)(F)C(F)(F)C(F)(F)C(F)(F)C(F)(F)F [PFDA, perfluorodecanoic acid] | 30–50% | – | – | 8.44 ×10⁻⁶ cm/s | – | – | – | – | – | – | – | – | – | – | – | – | weak substrate
